# Source: ChEMBL document CHEMBL1201862, “PubChem BioAssay data set” (2004)
#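 Exposure lasted 48 hours, with cells grown in 96-well plates and compounds tested at five concentrations. The concentration for 50% growth inhibition is given as GI50.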 Active and inactive are the calls of the source. Rule as the data show it: active = GI50 up to about 1.1 µM and inactive = higher. Non-standard residues stand in square brackets, D forms with d. Residues, ends and D or L forms follow the SMILES beside them.
# Assays:
# Experiment in all cases: NCI tumour cell line growth inhibition, 48 h
# HOP-92 = test system: HOP-92
# COLO 205 = test system: COLO 205
# TK-10 = test system: TK-10
# HCT-15 = test system: HCT-15
# ACHN = test system: ACHN
# RPMI-8226 = test system: RPMI-8226
# MDA-N = test system: MDA-N
# MDA-MB-435 = test system: MDA-MB-435
# 786-0 = test system: 786-0
# PC-3 = test system: PC-3
# OVCAR-3 = test system: OVCAR-3
# SK-MEL-28 = test system: SK-MEL-28
# K562 = test system: K562
# T47D = test system: T47D
# UO-31 = test system: UO-31
# SK-MEL-5 = test system: SK-MEL-5
# Malme-3M = test system: Malme-3M
# SF-539 = test system: SF-539
# A498 = test system: A498
# BT-549 = test system: BT-549
Structure (SMILES),GI50 (HOP-92),GI50 (COLO 205),GI50 (TK-10),GI50 (HCT-15),GI50 (ACHN),GI50 (RPMI-8226),GI50 (MDA-N),GI50 (MDA-MB-435),GI50 (786-0),GI50 (PC-3),GI50 (OVCAR-3),GI50 (SK-MEL-28),GI50 (K562),GI50 (T47D),GI50 (UO-31),GI50 (SK-MEL-5),GI50 (Malme-3M),GI50 (SF-539),GI50 (A498),GI50 (BT-549)
CC(C)OCC(O)COc1ccc2ccc(=O)oc2c1 (configuration not stated),> 100 µM (inactive),> 100 µM (inactive),> 100 µM (inactive),> 100 µM,> 100 µM (inactive),> 100 µM (inactive),> 100 µM (inactive),> 100 µM (inactive),> 100 µM (inactive),> 100 µM (inactive),> 100 µM (inactive),> 100 µM (inactive),> 100 µM (inactive),> 100 µM (inactive),> 100 µM (inactive),> 100 µM (inactive),> 100 µM (inactive),,,
FC1(F)[Se]C2C3CCC(C3)C2C1(F)F (configuration not stated),,> 100 µM (inactive),> 100 µM (inactive),> 100 µM,> 100 µM (inactive),> 100 µM (inactive),> 100 µM (inactive),> 100 µM (inactive),> 100 µM (inactive),> 100 µM (inactive),> 100 µM (inactive),> 100 µM (inactive),,> 100 µM (inactive),> 100 µM (inactive),> 100 µM (inactive),> 100 µM (inactive),> 100 µM (inactive),> 100 µM (inactive),
COc1ccc(NC(=O)CC(=O)N2N=C(C)C(/N=N/c3ccc(C(=O)O)cc3)C2=O)cc1 (configuration not stated),> 100 µM (inactive),> 100 µM (inactive),> 100 µM (inactive),> 100 µM,> 100 µM (inactive),> 10 µM (inactive),> 100 µM (inactive),> 100 µM (inactive),> 100 µM (inactive),> 100 µM (inactive),> 100 µM (inactive),> 100 µM (inactive),> 100 µM (inactive),> 100 µM (inactive),> 100 µM (inactive),> 100 µM (inactive),> 100 µM (inactive),> 100 µM (inactive),> 100 µM (inactive),
O=C(CN1CCCCC1)c1ccc2c(c1)Sc1ccccc1O2,7.64 µM (inactive),7.73 µM (inactive),18.9 µM (inactive),11 µM,14.1 µM (inactive),30.8 µM (inactive),15.8 µM (inactive),14.5 µM (inactive),14.8 µM (inactive),11.6 µM (inactive),15.3 µM (inactive),18.7 µM (inactive),57 µM (inactive),22.8 µM (inactive),10.4 µM (inactive),,17.6 µM (inactive),14.3 µM (inactive),16 µM (inactive),
CCN(CC)CCOCCn1c2c(c3ccccc31)CCCC2,20.9 µM (inactive),17.7 µM (inactive),19.1 µM (inactive),16.3 µM,19.1 µM (inactive),20.4 µM (inactive),17.2 µM (inactive),17.8 µM (inactive),16.2 µM (inactive),17.8 µM (inactive),35.5 µM (inactive),17 µM (inactive),13.6 µM (inactive),20.6 µM (inactive),14.5 µM (inactive),13.5 µM (inactive),15.6 µM (inactive),16.6 µM (inactive),,
CC(C)(C)/N=C1\C(=O)C2(C)CCC1C2(C)C (configuration not stated),,> 100 µM (inactive),> 100 µM (inactive),> 100 µM,> 100 µM (inactive),> 100 µM (inactive),,> 100 µM (inactive),> 100 µM (inactive),> 100 µM (inactive),> 100 µM (inactive),> 100 µM (inactive),> 100 µM (inactive),> 100 µM (inactive),> 100 µM (inactive),> 100 µM (inactive),> 100 µM (inactive),> 100 µM (inactive),16.4 µM (inactive),> 100 µM (inactive)
CC1(C)CCC[C@]2(C)[C@@H]1CC[C@@]13O[C@@H]1C1=C(CO)C(=O)OC1=C[C@@H]23,15.4 µM (inactive),16.5 µM (inactive),25.2 µM (inactive),14.4 µM,29.2 µM (inactive),21.1 µM (inactive),,20.5 µM (inactive),14.3 µM (inactive),14.9 µM (inactive),,16.6 µM (inactive),21.4 µM (inactive),,11.7 µM (inactive),15.5 µM (inactive),1.1 µM (active),,27.2 µM (inactive),22 µM (inactive)
CC(C)COP(C)(=O)C(N)(C(F)(F)F)C(F)(F)F (configuration not stated),> 100 µM (inactive),> 100 µM (inactive),> 100 µM (inactive),> 100 µM,> 100 µM (inactive),> 100 µM (inactive),> 100 µM (inactive),> 100 µM (inactive),> 100 µM (inactive),> 100 µM (inactive),> 100 µM (inactive),> 100 µM (inactive),> 100 µM (inactive),> 100 µM (inactive),> 100 µM (inactive),> 100 µM (inactive),> 100 µM (inactive),> 100 µM (inactive),,
O=C1NCC2(CCNCC2)N1c1ccccc1,> 100 µM (inactive),> 100 µM (inactive),> 100 µM (inactive),> 100 µM,> 100 µM (inactive),> 100 µM (inactive),> 100 µM (inactive),> 100 µM (inactive),> 100 µM (inactive),> 100 µM (inactive),> 100 µM (inactive),> 100 µM (inactive),> 100 µM (inactive),> 100 µM (inactive),,> 100 µM (inactive),> 100 µM (inactive),> 100 µM (inactive),> 100 µM (inactive),
CC1=C(N2CC2)C(=O)c2ccccc2C1=O,,0.762 µM (active),2.08 µM (inactive),1.05 µM,0.257 µM (active),,,1.51 µM (inactive),0.871 µM (active),0.897 µM (active),1.12 µM (inactive),1.85 µM (inactive),0.783 µM (active),13.1 µM (inactive),0.78 µM (active),0.164 µM (active),1.27 µM (inactive),1.69 µM (inactive),,
CSCC[C@H](NC(=O)[C@@H](N)CC(N)=O)C(=O)N[C@@H](Cc1c[nH]c2ccccc12)C(=O)N[C@@H](CCC(N)=O)C(=O)N[C@@H](CCC(=O)O)C(=O)N[C@H](C(=O)NCC(=O)N[C@@H](CCCCN)C(=O)N[C@H](C)C(=O)O)C(C)C (H-NMWQEVGK[dA]-OH),> 100 µM (inactive),> 100 µM (inactive),> 100 µM (inactive),> 100 µM,> 100 µM (inactive),> 100 µM (inactive),> 100 µM (inactive),> 100 µM (inactive),> 100 µM (inactive),> 100 µM (inactive),> 100 µM (inactive),> 100 µM (inactive),> 100 µM (inactive),> 100 µM (inactive),,> 100 µM (inactive),> 100 µM (inactive),> 100 µM (inactive),> 100 µM (inactive),
